TGI and GI50 data for 26 molecules are collected here from PubChem BioAssay (NCI).

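1) Cells in 96-well plates. 2) Compound, 48 h, 5 concentrations. 3) Linear interpolation between surrounding doses. 4) Unreached endpoint = highest concentration. GI50 = concentration required for 50% inhibition of growth. TGI: total growth inhibition.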

Experiment in all cases: NCI-60 cell line screen, 48 h
The subject of test [1] is RXF 393 renal.
The subject of test [2] is UACC-62 melanoma.
The subject of test [3] is SK-MEL-2 melanoma.
Test [4] deals with K-562 leukemia.
Test [5] deals with OVCAR-4 ovarian.
Test [6] concerns CCRF-CEM leukemia.
The subject of test [7] is OVCAR-3 ovarian.
Test [8] relates to OVCAR-8 ovarian.
Test [9] has as its system MOLT-4 leukemia.
Test [10] relates to MDA-MB-435.
For test [11], the system named is IGROV1 ovarian.
The subject of test [12] is MDA-MB-231 breast.
The test system of test [13] is HOP-92 NSCLC.

In the case of `c1ccc(C2CC(N3CCOCC3)=Nc3ccccc3N2)cc1` (stereo unspecified), the TGI in [1], in [2], in [3], in test [4], in test [5] and in [6] was more than 100 µM throughout. In addition, the TGI in test [7], in test [8], in test [9], in [10], in test [11] and in [12] was more than 100 µM throughout.

As to `CCOc1ccc(N=Cc2cc(OC)c(OC)c(OC)c2)cc1`, the TGI in test [1], in test [2], in test [3], in test [13], in test [4] and in test [5] was more than 100 µM in each case. Moreover, the TGI in test [6], in test [7], in test [8], in test [9] and in [11] was more than 100 µM in each case.

As to `CC(C)(C)C1CCC2c3c([nH]c4ccccc34)C3C(=O)N(c4ccc(Br)cc4)C(=O)C3C2C1` (stereo unspecified), the TGI in [2] was more than 100 µM; in test [3], 54.6 µM; in test [13], 49 µM; in test [4] it was 43.5 µM; in [5], 41.5 µM; in [6], 39.8 µM. In addition, the values for the TGI in test [8], in [9] and in [11] were 42.9 µM, 26.2 µM and 48 µM, respectively.

Consider `CC(O[Si](C)(C)C(C)(C)C)[C@H](NC(=O)OCC(Cl)(Cl)Cl)C(=O)O` (stereo partly specified), for which the TGI in test [1], in test [2], in test [4], in test [5], in test [6] and in test [7] was more than 100 µM each time. In addition, the TGI in [8], in test [9], in [10], in [11] and in test [12] was more than 100 µM throughout.

In the case of `COc1cc2c[n+](C)c3c4ccccc4ccc3c2cc1OC`, the TGI is 32.1 µM in [1]; 18 µM in test [2]; 34.2 µM in test [3]; 21.2 µM in [4]; 28.6 µM in test [5]; more than 100 µM in [6]. The TGI in test [7] was 34.9 µM; in test [8], 16.8 µM; in test [9] it was 20.6 µM; in test [10], 15.6 µM; in test [12], 14.8 µM.

Take `CCN(CC)CC(C)(C)C(=O)/C=C/c1ccc(C)cc1`: the TGI is 21.6 µM in [1]; 31.8 µM in test [2]; 25.7 µM in test [3]; 8.45 µM in [13]; more than 100 µM in test [4]; 24.4 µM in test [5]. Further, the TGI in [6] came to 19.2 µM; in test [7] it was 21.7 µM; in test [8], 31.4 µM; in test [9] it was 39.9 µM.

For the molecule `Nc1nc(Cl)c2ncn(Cc3ccccc3CCl)c2n1`, the TGI in test [2] is 4.33 µM; in test [3], 80.6 µM; in test [13] it was 31.1 µM; in test [4], more than 100 µM; in test [5] it was 6.47 µM; in [6], more than 100 µM. In addition, the TGI was 10.9 µM in [7]; 19.6 µM in test [8]; more than 100 µM in test [9]; 27 µM in [10]; more than 100 µM in test [11]; 9.61 µM in [12].

Take `OCCOCCO[P+]1(OCCOCCO)n2c3ccc2C(c2ccccc2)=C2C=CC(=N2)C(c2ccccc2)=c2ccc(n21)=C(c1ccccc1)C1=NC(=C3c2ccccc2)C=C1`: the TGI in [2] is 0.633 µM; in test [13], more than 100 µM; in test [5] it was 1.05 µM; in test [6] it was 1.14 µM; in [7] it was 0.158 µM; in [8], 2.09 µM. Further, the results for the TGI in test [9] and in [12] were 0.189 µM and 0.247 µM, respectively.

As for `N#Cc1c(N2CCOCC2)ncn(-c2ccccc2)c1=O`, the TGI in [2], in test [3], in test [13], in test [4], in test [6] and in test [7] was more than 100 µM each time. Moreover, the TGI in test [8], in test [9], in test [10] and in test [11] was more than 100 µM each time.

Regarding `CC(C)CCNC(=O)c1ccc(CNC(=O)/C=C/c2ccc(-c3ccccc3[N+](=O)[O-])o2)cc1`, the TGI in test [1] was more than 100 µM; in test [2], more than 100 µM; in [3] it was more than 100 µM; in test [4], more than 100 µM; in test [5] it was 55.3 µM; in test [6], more than 100 µM. The TGI in [7], in test [8], in [9], in test [10] and in test [12] was more than 100 µM throughout.

Take `CC(C)(C)OC(=O)C1/C(=C/CO)CN1C(=O)OC(C)(C)C` (stereo unspecified): the TGI in test [2], in test [3], in test [13], in test [4], in [5] and in [6] was more than 100 µM each time. For the same molecule, the TGI in test [7], in test [8], in [9], in [10] and in [11] was more than 100 µM each time.

Take `Cc1[nH]n(-c2ccccc2)c(=S)c1C(=O)c1ccccc1`: the TGI in [1] is 10.8 µM; in test [2], more than 100 µM; in test [3], more than 100 µM; in test [4], more than 100 µM; in test [5] it was more than 100 µM; in [6] it was 57 µM. In addition, the results for the TGI in [8], in [9] and in test [11] were more than 100 µM, 79.4 µM and more than 100 µM, respectively.

Consider `CCC(C)(C)NC1=C(NC(C)=O)C(=O)c2ccccc2C1=O`, for which the TGI was more than 75 µM in [1]; more than 75 µM in [2]; 58.2 µM in test [3]; 53.4 µM in test [4]; more than 75 µM in test [5]; 41.3 µM in test [6]. Besides, the TGI in test [7] is more than 75 µM; in [8], more than 75 µM; in test [9] it was 31.6 µM; in test [11], more than 75 µM.

As for `C[n+]1c2ccccc2c(NC(CCC(N)=O)C(=O)O)c2ccccc21` (stereo unspecified), the TGI in test [1], in test [2], in test [3], in [13], in test [4] and in [5] was more than 100 µM each time. The TGI in test [7], in test [8], in test [9] and in test [11] was more than 100 µM in each case.

Consider `CCNC1CC(C(C)(C)NCC)CC=C1C` (stereo unspecified), for which the TGI in test [2], in test [13], in test [4], in test [5], in test [6] and in test [7] was more than 100 µM in each case. Besides, the TGI in test [8], in test [9], in test [10], in [11] and in test [12] was more than 100 µM in each case.

`Cc1ccc(N2C(=O)/C(=c3\s/c(=C(/N)O)c(=N)n3-c3ccccc3)SC2=S)cc1`: the TGI in test [2] is more than 100 µM; in [13] it was 47.1 µM; in [4] it was more than 100 µM; in test [6] it was more than 100 µM; in [7] it was more than 100 µM; in test [8], more than 100 µM. The TGI in test [9] and in test [11] was more than 100 µM each time.

As to `O=C(c1nsc(Cl)c1Cl)N1CCCCC1`, the TGI in test [1], in test [2], in test [4], in test [5], in [6] and in test [7] was more than 100 µM each time. Also, the TGI in test [8], in test [9], in test [10], in test [11] and in [12] was more than 100 µM in each case.

Turning to `Nc1nc(=O)n(C2OC(CO)C(O)C2O)cc1F` (stereo unspecified), the TGI was more than 100 µM in test [1]; 5.3 µM in test [2]; more than 100 µM in [3]; 5.9 µM in [13]; more than 100 µM in test [4]; more than 100 µM in test [5]. Also, the TGI is more than 43.8 µM in [6]; more than 100 µM in [7]; more than 100 µM in [8]; 0.268 µM in [9]; more than 100 µM in test [11].

As for `Clc1ccc2c(NCCNc3nc(-c4ccccc4)cc(-c4ccccc4)n3)ccnc2c1`, the GI50 in test [2] was 1850 nM; in test [3] it was 1840 nM; in [13] it was 1610 nM; in test [6], 2320 nM; in [8], 2070 nM; in test [12] it was 1850 nM. Further, the TGI came out at 3.37 µM in test [2]; 3.62 µM in test [3]; 3.14 µM in test [13]; 5.83 µM in test [6]; 4.3 µM in test [8]; 3.44 µM in test [12].

In the case of `CC1=NN(C(=O)c2ccc(Cl)cc2)C(=O)/C1=C/c1cccc(O)c1`, the TGI in [1], in test [2], in test [3], in test [13], in [4] and in [5] was more than 100 µM throughout. Further, the TGI in [6], in [7], in test [8], in test [9] and in test [11] was more than 100 µM each time.

Consider `Cc1ccc2c(c1)NC(=O)C(N=[N+]=[N-])(c1ccccc1)C2=O` (stereo unspecified), for which the TGI in [2] is 61.3 µM; in test [3], 36.2 µM; in test [13] it was 85.2 µM; in test [4], 56.6 µM; in test [5], more than 100 µM; in [6] it was more than 100 µM. The TGI in [7] is 37.7 µM; in test [8], 58.7 µM; in [9], 71.5 µM; in [11], more than 100 µM.

`CC(C)(C)SC1=CCC[C@@H](P(=O)(c2ccccc2)c2ccccc2)[C@@H]2CCC[C@@H]12`: the TGI in test [1] was 29.9 µM; in [2], 24.9 µM; in test [3], 31.8 µM; in test [13], 28.9 µM; in test [4], 51.6 µM; in test [5] it was 31.4 µM. The TGI in test [6] was determined as 60.6 µM; in test [7], 32.7 µM; in [8] it was 39.2 µM; in test [9], 38.1 µM; in test [10] it was 33.1 µM; in test [11], 36 µM.

In the case of `C=CCSc1nn(CC=C)cc2ncnc1-2`, the TGI in test [1], in test [2], in test [3], in test [4], in test [6] and in test [7] was more than 100 µM in each case. Further, the TGI in test [8], in [9], in test [10], in test [11] and in test [12] was more than 100 µM each time.

Take `c1ccc2cc3n[se]nc3cc2c1`: the TGI in test [1], in test [2], in test [3], in [4], in test [5] and in test [6] was more than 100 µM each time. Also, the TGI in test [8], in test [9] and in [11] was more than 100 µM throughout.

For the molecule `Nc1nc(Cl)cc(Nc2ccc3c(c2)CCC3)n1`, the TGI in [2], in [3], in test [13], in [4], in [5] and in [6] was more than 100 µM in each case. In addition, the TGI is more than 100 µM in test [7]; more than 100 µM in test [8]; 84.7 µM in test [9]; more than 100 µM in test [10]; more than 100 µM in test [11]; more than 100 µM in test [12].

In the case of `Cc1c2n(c3ccccc13)CC1C2N(C)OC1(C)C` (stereo unspecified), the TGI in test [2], in test [3], in test [4], in test [5], in test [6] and in test [7] was more than 100 µM throughout. Also, the TGI in [8] and in [9] was more than 100 µM each time.
